# Assay results published in article PMC6982808, “Design and Biological Evaluation of Colchicine-CD44-Targeted Peptide Conjugate in an In Vitro Model of Crystal Induced Inflammation” (Molecules, 2019).
# Ends that are not written are not given here.
# Assays:
# THP-1 macrophages [1] = assay: MSU crystal phagocytosis by THP-1 macrophages (flow cytometry side-scatter, % cells in P2 region); type: cell-based, human
# Protocol: THP-1 macrophages (500,000 cells per well) were treated with MSU crystals (100 μg/mL) ± HA (100 μg/mL) for 4 h. Subsequently, macrophages were collected, pelleted, and washed with PBS. MSU phagocytosis was determined by analyzing the change in cell side-scatter using a flow cytometer. Two regions of interest were identified: the P1 region representing the THP-1 macrophage population in the absence of MSU crystal exposure and the P2 region with increased cell side scatter indicative of MSU phagocytosis. Data are presented as the percentage of cells in the P2 region across different experimental groups.
# Subsequently, cells were treated with MSU crystals (100 μg/mL) for 4 h. MSU phagocytosis by THP-1 macrophages was determined using flow cytometry as described above.
# [2] = target: T1, recombinant human CD44 receptor (Homo sapiens, UniProt P16070); assay: ELISA binding of coated P6 peptide or HA to CD44-IgG Fc fusion protein; settings: for binding to the CD44 receptor (ELISA absorbance at 450 nm): wells coated 1 ng/mL to 1 μg/mL, CD44-IgG Fc 0.1 µg/mL, 1 h room temperature, three independent experiments
# T1 construct: purchased R&D Systems
# Protocol: Wells of high-binding microtiter plates were coated with either the P6 peptide or high molecular weight HA (molecular weight >1 million Da) in serial concentrations between 1 ng/mL and 1 μg/mL overnight in phosphate buffered saline (PBS) (100 µL per well) at 4 °C. […] CD44-IgG Fc fusion protein (R&D Systems) (0.1 µg/mL) in PBS + 0.05% Tween 20 (100 µL per well) was added to both coated and uncoated wells and incubated for 1 h at room temperature. Following washing with PBS + 0.1% Tween 20, anti-human IgG Fc-HRP (1:1000) was added and incubated at room temperature for 1 h, followed by washing three times with PBS + 0.05% Tween 20. Turbo TMB-ELISA substrate solution was added (100 µL per well), and absorbance intensity was determined at 450 nm. Absorbance values in the […] to adjust for any non-specific binding by CD44-IgFc.
# THP-1 macrophages [3] = assay: ROS generation in MSU-stimulated THP-1 macrophages (flow cytometry); type: cell-based, human; settings: 10 and 25 μM, 24 h, then MSU 100 μg/mL 6 h; vs MSU alone
# Protocol: (§1) THP-1 macrophages (500,000 cells per well) were treated with MSU crystals (100 μg/mL) for 2, 4, and 6 h. ROS staining solution (1:1000 ratio) was added to the wells and incubated for 1 h. Subsequently, cells were collected, washed, and cell-associated fluorescence was determined using flow cytometry. Media were collected at 2, 4, and 6 h, and IL-8 media concentrations were determined by ELISA. […] Subsequently, cells were treated with MSU crystals (100 μg/mL) for 6 h. ROS generation and IL-8 concentrations were determined as described above.
# THP-1 macrophages [4] = assay: IL-8 secretion by MSU-stimulated THP-1 macrophages (ELISA); type: cell-based, human; settings: 1, 10 and 25 μM, 24 h, then MSU 100 μg/mL 6 h; vs MSU alone
# Protocol: as §1
# THP-1 macrophages [5] = assay: Cytotoxicity against THP-1 macrophages (Cell Counting Kit-8); settings: 24 h, CCK-8; for cytotoxic effect against THP-1 macrophages (in words): 1, 10 and 25 μM, three independent experiments
# Protocol: Subsequently, 10 μL of CCK-8 solution was added to each well and absorbance was measured 90 min later at 450 nm. Cytotoxicity was expressed as the percentage of viable cells following treatments.
# [6] = system: CD44 receptor on THP-1 macrophages; assay: CD44 surface expression on THP-1 macrophages under conditions of inflammation (flow cytometry); type: cell-based, human; settings: 24 h, serum-free medium
# Protocol: THP-1 monocytes were cultured in RPMI 1640 medium supplemented with 10% heat-inactivated FBS, 10 mM HEPES, 2 mM glutamine, 100 U/I penicillin, and 100 μg/mL streptomycin and maintained at 37 °C and 5% CO2. THP-1 monocytes were differentiated into THP-1 macrophages using 50 ng/mL phorbol-12-myristate 13-acetate (PMA) for 24 h. Subsequently, adherent cells were washed twice with serum-free medium and rested for another 24 h in PMA-free RPMI + 10% FBS medium. CD44 expression on THP-1 macrophages was conducted using flow cytometry following incubation with the CD44-specific antibody (1:1000 dilution) for 1 h followed by cell pelleting and washing the cell pellet with PBS. THP-1 macrophages were then incubated with DyLight 488 goat anti-mouse IgG at 1:1000 dilution for 30 min. […] THP-1 macrophages were washed with PBS, collected, and CD44 expression was determined using flow cytometry as described above.
# in vitro = settings: human, cerebrospinal or other body fluid
# Protocol: Using seven microcentrifuge tubes, a total of 50 μL of normal SF was diluted with 150 μL of PBS in each tube. Following equilibrating diluted SF to 37 ± 1 °C for 15 min, 50 μL of peptide stock solution (1 mM solution in 100% sterile water) was added to each tube. Next, at different time intervals (0, 1, 2, 3, 4, 6, and 24 h), an aliquot of the reaction solution (100 μL) was sampled. Cold methanol (200 μL) was added to each aliquot in order to precipitate proteins that were present in the SF. This was followed by cooling the solution to 4 °C for 15 min followed by centrifugation at 500 g for 15 min to precipitate SF proteins. To determine the proteolytic stability of the P6 peptide, the supernatant was injected into an analytical RP-HPLC C18 column. In order to measure the concentration of the P6 peptide isolated from SF, the area under the curve (AUC) of the P6 peptide at each time point was estimated using an average of four runs, and normalized to AUC values at time 0 and expressed as the percentage of AUC at time 0.
# T1 sequence (P16070 with tags, fused parts or gaps limits assumed): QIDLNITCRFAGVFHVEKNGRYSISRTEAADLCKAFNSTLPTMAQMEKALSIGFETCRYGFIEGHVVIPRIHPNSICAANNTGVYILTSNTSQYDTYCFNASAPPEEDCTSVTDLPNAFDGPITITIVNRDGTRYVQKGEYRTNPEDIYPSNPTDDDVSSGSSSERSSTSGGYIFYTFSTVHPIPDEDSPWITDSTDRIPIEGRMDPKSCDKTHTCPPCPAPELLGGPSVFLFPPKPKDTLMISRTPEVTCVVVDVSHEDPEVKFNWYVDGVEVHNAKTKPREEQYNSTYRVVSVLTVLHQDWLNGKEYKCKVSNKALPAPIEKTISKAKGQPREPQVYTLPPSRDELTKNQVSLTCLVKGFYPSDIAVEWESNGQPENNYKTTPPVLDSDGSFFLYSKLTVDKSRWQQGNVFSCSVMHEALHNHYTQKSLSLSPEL
compound,measurement,setting,value
hyaluronic acid [HA],MSU phagocytosis by THP-1 macrophages,THP-1 macrophages [1]; 100 μg/mL co-treatment with MSU 100 μg/mL for 4 h,significantly reduced MSU phagocytosis
same,binding to the CD44 receptor (ELISA absorbance at 450 nm),[2],concentration-dependent binding
COc1cc2c(c(OC)c1OC)-c1ccc(OC)c(=O)cc1[C@@H](NC(C)=O)CC2 [colchicine],ROS generation,THP-1 macrophages [3],reduced
same,MSU phagocytosis by THP-1 macrophages,"THP-1 macrophages [1]; 1, 10 and 25 μM, 24 h pre-treatment, then MSU 100 μg/mL 4 h, vs MSU alone",reduced MSU phagocytosis
same,IL-8 secretion,THP-1 macrophages [4],reduced
same,reduction of macrophage cell viability,THP-1 macrophages [5]; 1 μM,approximately 50%
same,reduction of macrophage cell viability,THP-1 macrophages [5]; 25 μM,approximately 80%
same,cytotoxic effect against THP-1 macrophages (in words),THP-1 macrophages [5],dose-dependent cytotoxic effect
"O=c1[nH]c(=O)c2[nH]c(=O)[nH]c2[nH]1 [UA, uric acid]",enhancement in cell surface CD44 protein staining compared to untreated control macrophages,[6]; UA 10 mg/dL,approximately 3 fold
"IL-1β: recombinant human IL-1β, proinflammatory cytokine",enhancement in cell surface CD44 protein staining compared to untreated control macrophages,[6]; IL-1β 10 ng/mL,approximately two-fold
WYKGDKFLYLQNGIEAIADF-NH2 [P6 peptide],ROS generation,THP-1 macrophages [3],reduced
same,MSU phagocytosis by THP-1 macrophages,"THP-1 macrophages [1]; 10 and 25 μM, 24 h pre-treatment, then MSU 100 μg/mL 4 h, vs MSU alone",significantly reduced MSU phagocytosis
same,difference between P6 peptide and HA binding to CD44,[2]; across all coating concentrations 1 ng/mL to 1 μg/mL,no significant difference
same,binding to the CD44 receptor (ELISA absorbance at 450 nm),[2],concentration-dependent binding
same,IL-8 secretion,THP-1 macrophages [4],reduced
same,half-life at 200 μM,in vitro,~4 h
same,cytotoxic effect against THP-1 macrophages (in words),THP-1 macrophages [5],no cytotoxic effect
